Patent publication US9616081B2, “Antitumor agent including low-dose irinotecan hydrochloride hydrate” (TAIHO PHARMACEUTICAL CO., LTD., priority 2013, dated 2017)
Where a name gives a salt, the structure may show the parent alone.

How the values were obtained:
[1] = tested on: human gastric cancer cell line (SC-2); assay: Example 3: combined administration test, SC-2 tumor in mice (RTV, TGI); conditions: Day 1, 8, i.v., q.d.
[2] = dose of 111 mg/kg/day; cited from earlier work
[3] = tested on: human colon cancer cell line (KM20C); assay: Reference Example: survival of mice intraperitoneally transplanted with KM20C, monotherapy; format: in vivo; conditions: i.v., weekly; for ILS (increase in life span): 6 weeks from Day 3; for Survival time (day) Mean ± SD: 6 weeks from Day 3, BALB/cA Jcl-nu mice
Protocol: Cultured cells (1×10^7 cells/mouse) of human colon cancer cell line (KM20C) were intraperitoneally transplanted into 5-6 weeks old BALB/cA Jcl-nu mice after birth, and the mice were assigned to each group so that the mean body weight of each group became equal. The date on which such grouping (n=10) was performed was taken as Day 0.
[…]. Starting the dug administration from Day 3, a 5-days' daily oral administration of the FTD/TPI combination drug with 2-days' rest was performed for 6 weeks, and CPT-11 was administered once in a week from the tail vein for 6 weeks.
As an index of the antitumor effect, the number of survivors of each group of mice and the survival time of each group was compared.

In the case of `CCc1c2c(nc3ccc(OC(=O)N4CCC(N5CCCCC5)CC4)cc13)-c1cc3c(c(=O)n1C2)COC(=O)[C@]3(O)CC` [CPT-11, irinotecan hydrochloride hydrate], the “TGI, tumor growth inhibition rate on Day 15” value ([1]; 40 mg/kg/day) is listed as 64.6%, the “TGI, tumor growth inhibition rate on Day 15” value ([1]; 80 mg/kg/day) is listed as 79.4% and the death case reported [2] is listed as “death case”. For the same compound, the “ILS (increase in life span)” value ([3]; 80 mg/kg/day) was 54.0%, the “Survival time (day) Mean ± SD” value ([3]; 80 mg/kg/day) was 61.6 ± 12.6 days and the “ILS (increase in life span)” value ([3]; 100 mg/kg/day) was 81.3%. For the same compound, the “Survival time (day) Mean ± SD” value ([3]; 100 mg/kg/day) was 72.5 ± 12.3 days.
